In patent publication US12577228B2, “Dihydrocyclopenta-isoquinoline-sulfonamide derivatives compounds” (UCB Biopharma SRL, priority 2019, dated 2026):
pIC50: −log10 of the molar value.

Target: T1, IgE-Tb / soluble IgE receptor FcεRIα with a Y131A mutation (Homo sapiens, UniProt P01854, N146Q/N252Q)
T1 construct: fused on or other part: Terbium chelate (LanthaScreen amine-reactive) on IgE-Fc; Alexa Fluor 488 hydrazide on the oxidised glycans of sFcεRIα; Both are labels and no part of the key
Experiment: in vitro FRET assay: binding of IgE-Tb to receptor FcεRIα-Y131A-AF488 and its inhibition by compounds
Settings: 5 nM IgE-Tb, 25 nM FcεRIα-Y131A-AF488, 2 hours at room temperature; read-out: FRET IC50 range

T1 sequence (P01854 104-427 N146Q/N252Q): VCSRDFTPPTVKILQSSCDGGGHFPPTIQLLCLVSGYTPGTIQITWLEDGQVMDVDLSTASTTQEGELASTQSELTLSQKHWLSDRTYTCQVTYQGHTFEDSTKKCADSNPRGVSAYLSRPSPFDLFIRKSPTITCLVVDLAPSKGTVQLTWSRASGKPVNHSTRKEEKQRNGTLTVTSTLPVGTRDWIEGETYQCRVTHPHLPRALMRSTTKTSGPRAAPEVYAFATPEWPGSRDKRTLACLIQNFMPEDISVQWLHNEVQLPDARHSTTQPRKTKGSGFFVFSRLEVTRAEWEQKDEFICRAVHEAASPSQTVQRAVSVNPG
T1 sequence (P12319 26-201 Y156A partner): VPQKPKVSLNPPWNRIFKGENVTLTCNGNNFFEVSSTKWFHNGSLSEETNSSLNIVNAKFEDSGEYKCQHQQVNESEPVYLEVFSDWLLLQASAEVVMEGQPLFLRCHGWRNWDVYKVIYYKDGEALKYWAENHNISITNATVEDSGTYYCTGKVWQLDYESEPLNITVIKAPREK

SMILES	pIC50
CC(C)CNS(=O)(=O)c1c2c(cc3cnc(C4CC4)cc13)CC(C(=O)NCC(C)(C)C)C2 (stereo not shown) [Example 54, 3-cyclopropyl-N-(2,2-dimethylpropyl)-5-(2-methylpropylsulfamoyl)-7,8-dihydro-6H-cyclopenta[g]isoquinoline-7-carboxamide]	7.30 to 8.00
CC(C)(F)CNS(=O)(=O)c1c2c(cc3cnc(C4CC4)cc13)C[C@@H](NC(=O)c1c[nH]c3ccc(F)cc13)C2 [Example 131, N-[(7R)-3-cyclopropyl-5-[(2-fluoro-2-methylpropyl)sulfamoyl]-7,8-dihydro-6H-cyclopenta[g]isoquinolin-7-yl]-5-fluoro-1H-indole-3-carboxamide]	7.30 to 8.00
Cn1cc(C(=O)N[C@@H]2Cc3cc4cnc(C5CC5)cc4c(S(=O)(=O)NCC(C)(C)F)c3C2)c2ccccc21 [Example 132, N-[(7R)-3-cyclopropyl-5-[(2-fluoro-2-methylpropyl)sulfamoyl]-7,8-dihydro-6H-cyclopenta[g]isoquinolin-7-yl]-1-methylindole-3-carboxamide]	7.30 to 8.00
CC(C)(F)CNS(=O)(=O)c1c2c(cc3cnc(C4CC4)cc13)CC(c1nc3ccncc3[nH]1)C2 (stereo not shown) [Example 56, 3-cyclopropyl-N-(2-fluoro-2-methylpropyl)-7-(3H-imidazo[4,5-c]pyridin-2-yl)-7,8-dihydro-6H-cyclopenta[g]isoquinoline-5-sulfonamide]	7.00 to 7.30
CC(C)(F)CNS(=O)(=O)c1c2c(cc3cnc(C4CC4)cc13)CC(Nc1cncc3[nH]cnc13)C2 (stereo not shown) [Example 62, 3-cyclopropyl-N-(2-fluoro-2-methylpropyl)-7-(3H-imidazo[4,5-c]pyridin-7-ylamino)-7,8-dihydro-6H-cyclopenta[g]isoquinoline-5-sulfonamide]	7.30 to 8.00
CC(C)(F)CNS(=O)(=O)c1c2c(cc3nnc(C4CC4)cc13)CC(NC(=O)OC(C)(C)C)C2 (stereo not shown) [Example 65, tert-butyl N-[3-cyclopropyl-5-[(2-fluoro-2-methylpropyl)sulfamoyl]-7,8-dihydro-6H-cyclopenta[g]cinnolin-7-yl]carbamate]	5.70 to 7.00
CC1(C)CC1NS(=O)(=O)c1c2c(cc3cnc(C4CC4)cc13)CC(C(=O)Nc1cccnc1)C2 (stereo not shown) [Example 81, 3-cyclopropyl-5-[(2,2-dimethylcyclopropyl)sulfamoyl]-N-pyridin-3-yl-7,8-dihydro-6H-cyclopenta[g]isoquinoline-7-carboxamide]	5.70 to 7.00
Cn1ccc(-c2ccc(N[C@@H]3Cc4cc5cnc(C6CC6)cc5c(S(=O)(=O)NCC(C)(C)F)c4C3)cn2)n1 [Example 108, (7R)-3-cyclopropyl-N-(2-fluoro-2-methylpropyl)-7-[[6-(1-methylpyrazol-3-yl)pyridin-3-yl]amino]-7,8-dihydro-6H-cyclopenta[g]isoquinoline-5-sulfonamide]	7.30 to 8.00
CC(C)(F)CNS(=O)(=O)c1c2c(cc3cnc(C4CC4)cc13)C[C@@H](NC(=O)c1n[nH]c3cc(Br)ccc13)C2 [Example 141, 6-bromo-N-[(7R)-3-cyclopropyl-5-[(2-fluoro-2-methylpropyl)sulfamoyl]-7,8-dihydro-6H-cyclopenta[g]isoquinolin-7-yl]-1H-indazole-3-carboxamide]	5.70 to 7.00
CC(C)(F)CNS(=O)(=O)c1c2c(cc3cnc(C4CC4)cc13)C[C@@H](Nc1ccc(C(F)F)nc1)C2 [Example 118, (7R)-3-cyclopropyl-7-[[6-(difluoromethyl)pyridin-3-yl]amino]-N-(2-fluoro-2-methylpropyl)-7,8-dihydro-6H-cyclopenta[g]isoquinoline-5-sulfonamide]	7.30 to 8.00
CC(C)(F)CNS(=O)(=O)c1c2c(cc3cnc(C4CC4)cc13)CC(NC1=CS(=O)(=O)CC1)C2 (stereo not shown) [Example 40, 3-cyclopropyl-7-[(1,1-dioxo-2,3-dihydrothiophen-4-yl)amino]-N-(2-fluoro-2-methylpropyl)-7,8-dihydro-6H-cyclopenta[g]isoquinoline-5-sulfonamide]	5.70 to 7.00
CNS(=O)(=O)c1ccc(N[C@@H]2Cc3cc4cnc(C5CC5)cc4c(S(=O)(=O)NCC(C)(C)F)c3C2)cn1 [Example 93, (7R)-3-cyclopropyl-N-(2-fluoro-2-methylpropyl)-7-[[6-(methylsulfamoyl)pyridin-3-yl]amino]-7,8-dihydro-6H-cyclopenta[g]isoquinoline-5-sulfonamide]	7.30 to 8.00
CC(C)(F)CNS(=O)(=O)c1c2c(cc3cnc(C4CC4)cc13)C[C@@H](Nc1ccc(C(N)=O)nc1)C2 [Example 11, 5-[[(7R)-3-cyclopropyl-5-[(2-fluoro-2-methylpropyl)sulfamoyl]-7,8-dihydro-6H-cyclopenta[g]isoquinolin-7-yl]amino]pyridine-2-carboxamide]	7.30 to 8.00
CC(C)(F)CNS(=O)(=O)c1c2c(cc3cnc(C4CC4)cc13)C[C@@H](Nc1ccc(Cl)nc1)C2 [Example 32, (7R)-7-[(6-chloropyridin-3-yl)amino]-3-cyclopropyl-N-(2-fluoro-2-methylpropyl)-7,8-dihydro-6H-cyclopenta[g]isoquinoline-5-sulfonamide]	7.30 to 8.00
Cn1nnc(-c2ccc(N[C@@H]3Cc4cc5cnc(C6CC6)cc5c(S(=O)(=O)NC5CC(F)C5)c4C3)cn2)n1 (stereo partly drawn) [Example 1, (7R)-3-cyclopropyl-N-(3-fluorocyclobutyl)-7-[[6-(2-methyltetrazol-5-yl)pyridin-3-yl]amino]-7,8-dihydro-6H-cyclopenta[g]isoquinoline-5-sulfonamide]	8.00 to 9.00
CC(C)(F)CNS(=O)(=O)c1c2c(cc3cnc(C4CC4)cc13)CC(NC1=CC(=O)CCC1)C2 (stereo not shown) [Example 7, 3-cyclopropyl-N-(2-fluoro-2-methylpropyl)-7-[(3-oxocyclohexen-1-yl)amino]-7,8-dihydro-6H-cyclopenta[g]isoquinoline-5-sulfonamide]	7.00 to 7.30
CC(C)(F)CNS(=O)(=O)c1c2c(cc3cnc(C4CC4)cc13)CC(Nc1ccc(S(C)(=N)=O)nc1)C2 (stereo not shown) [Example 35, 3-cyclopropyl-N-(2-fluoro-2-methylpropyl)-7-[[6-(methylsulfonimidoyl)pyridin-3-yl]amino]-7,8-dihydro-6H-cyclopenta[g]isoquinoline-5-sulfonamide]	7.30 to 8.00
CC(C)(F)CNS(=O)(=O)c1c2c(cc3cnc(C4CC4)cc13)C[C@H](n1cnc(C(N)=O)c1N)C2 [Example 90, 5-amino-1-[(7S)-3-cyclopropyl-5-[(2-fluoro-2-methylpropyl)sulfamoyl]-7,8-dihydro-6H-cyclopenta[g]isoquinolin-7-yl]imidazole-4-carboxamide]	5.70 to 7.00
CC(=O)Nc1c2c(c(S(=O)(=O)NCC(C)C)c3cc(C4CC4)ncc13)CCC2 [Example 22, N-[3-cyclopropyl-5-(2-methylpropylsulfamoyl)-7,8-dihydro-6H-cyclopenta[g]isoquinolin-9-yl]acetamide]	5.70 to 7.00
CC(C)(F)CNS(=O)(=O)c1c2c(cc3cnc(C4CC4)cc13)CN(C(=O)Cc1cccnc1)C2 [Example 72, 7-cyclopropyl-N-(2-fluoro-2-methylpropyl)-2-(2-pyridin-3-ylacetyl)-1,3-dihydropyrrolo[3,4-g]isoquinoline-9-sulfonamide]	5.70 to 7.00
CCOC(=O)c1ncn([C@H]2Cc3cc4cnc(C5CC5)cc4c(S(=O)(=O)NCC(C)(C)F)c3C2)c1N [Example 8, ethyl 5-amino-1-[(7S)-3-cyclopropyl-5-[(2-fluoro-2-methylpropyl)sulfamoyl]-7,8-dihydro-6H-cyclopenta[g]isoquinolin-7-yl]imidazole-4-carboxylate]	5.70 to 7.00
Cc1cc(Nc2nncn2C2Cc3cc4cnc(C5CC5)cc4c(S(=O)(=O)NCC(C)(C)F)c3C2)n(C)n1 (stereo not shown) [Example 57, 3-cyclopropyl-7-[3-[(2,5-dimethylpyrazol-3-yl)amino]-1,2,4-triazol-4-yl]-N-(2-fluoro-2-methylpropyl)-7,8-dihydro-6H-cyclopenta[g]isoquinoline-5-sulfonamide]	5.70 to 7.00
COc1cc(Oc2cncc(N[C@@H]3Cc4cc5cnc(C6CC6)cc5c(S(=O)(=O)NCC(C)(C)F)c4C3)c2)ccn1 [Example 16, (7R)-3-cyclopropyl-N-(2-fluoro-2-methylpropyl)-7-[[5-(2-methoxypyridin-4-yl)oxypyridin-3-yl]amino]-7,8-dihydro-6H-cyclopenta[g]isoquinoline-5-sulfonamide]	7.00 to 7.30
Cn1cc(C(=O)C(=O)N[C@@H]2Cc3cc4cnc(C5CC5)cc4c(S(=O)(=O)NCC(C)(C)F)c3C2)cn1 [Example 137, N-[(7R)-3-cyclopropyl-5-[(2-fluoro-2-methylpropyl)sulfamoyl]-7,8-dihydro-6H-cyclopenta[g]isoquinolin-7-yl]-2-(1-methylpyrazol-4-yl)-2-oxoacetamide]	5.70 to 7.00
CC(C)CNS(=O)(=O)N1Cc2cc3cnc(C4CC4)cc3c(S(=O)(=O)NCC(C)(C)F)c2C1 [Example 99, 7-cyclopropyl-9-N-(2-fluoro-2-methylpropyl)-2-N-(2-methylpropyl)-1,3-dihydropyrrolo[3,4-g]isoquinoline-2,9-disulfonamide]	5.70 to 7.00
COc1nc(C2CC2)cc2c(S(=O)(=O)NCC(C)(C)F)c3c(cc12)CC(Nc1ccc(C2(O)COC2)nc1)C3 (stereo not shown) [Example 26, 3-cyclopropyl-N-(2-fluoro-2-methylpropyl)-7-[[6-(3-hydroxyoxetan-3-yl)pyridin-3-yl]amino]-1-methoxy-7,8-dihydro-6H-cyclopenta[g]isoquinoline-5-sulfonamide]	5.70 to 7.00
Cn1nnc(-c2ccc(N[C@@H]3Cc4cc5cnc(C6CC6)cc5c(S(=O)(=O)NCC(C)(C)F)c4C3)cc2)n1 [Example 125, (7R)-3-cyclopropyl-N-(2-fluoro-2-methylpropyl)-7-[4-(2-methyltetrazol-5-yl)anilino]-7,8-dihydro-6H-cyclopenta[g]isoquinoline-5-sulfonamide]	7.00 to 7.30
Cc1ncccc1-n1cnnc1NC1Cc2cc3cnc(C4CC4)cc3c(S(=O)(=O)NCC(C)(C)F)c2C1 (stereo not shown) [Example 78, 3-cyclopropyl-N-(2-fluoro-2-methylpropyl)-7-[[4-(2-methylpyridin-3-yl)-1,2,4-triazol-3-yl]amino]-7,8-dihydro-6H-cyclopenta[g]isoquinoline-5-sulfonamide]	5.70 to 7.00
